Laboratory results: PubChem BioAssay AID2060363 (Molecular Pharmacology Branch, DTP, NCI, 2025)

Test system: 156681-154-R-J1-PDC tumor spheroids, viability % test/control
Test: Anticancer human tumor 156681-154-R-J1-PDC patient-derived melanoma cell line growth inhibition [TAK]
Conditions: spheroids with HUVEC and MSC; for IC50: curve of first compound; for viability, T/C: stronger effect = lower value
Text: Combinatorial screen of targeted agents with TAK-243 and ipatasertib in multi-cell type tumor spheroids
A high-throughput screen of multi-cell type tumor spheroids was designed to identify active combinations of targeted small molecules and TAK-243 or ipatasertib. Complex spheroids include a stromal component modeled by human endothelial cells (HUVEC) and fibroblasts modeled by human mesenchymal stem cells (MSCs). The concentration ranges selected for each drug and investigational agent were based upon clinically achievable concentrations if the clinical Cmax of the agent was known.
Compounds. The drugs and investigational agents: TAK-243 (785004), ipatasertib (767898), everolimus (733504), selumetinib (741078), bortezomib (756655), trametinib (758246), ixazomib (758254), vemurafenib (761431), dabrafenib (764134), sapanisertib (764658), alpelisib (765974), and copanlisib (816437), were obtained from the National Cancer Institute (NCI) Developmental Therapeutics Program Chemical Repository. The FDA-approved anticancer drug set is available from the NCI Developmental Therapeutics Program. […] The stock solutions were prepared in dimethyl sulfoxide (DMSO, Sigma-Aldrich, St. Louis, MO, cat. D2650) at 800-fold the tested concentration and stored at -70 degrees C prior to their use. All drugs and investigational agents were tested over a range starting from a high concentration at or near the clinical Cmax and decreasing in half-log increments. If the clinical Cmax for an agent had not been determined, the highest concentration tested was 10 microM.
NCI60 Cell Culture. NCI60 cell lines were obtained from the NCI Developmental Therapeutics Program Tumor Repository. For each lot of cells, the Repository performed Applied Biosystems AmpFLSTR Identifiler testing with PCR amplification to confirm consistency with the published Identifier STR profile for each cell line. Cells were kept in continuous culture for no more than 20 passages. The optimal seeding densities for each of the cell lines at each time point assessed were determined prior to performing the concentration response studies. Briefly, the NCI60 human tumor lines were grown as monolayers in RPMI 1640 medium supplemented with 10% FBS and 2 mmol/L L-glutamine.
An additional 2 lines were from the NCI60 cell line panel including melanomas, MALME-3M and SK-MEL-2. Pooled donor human umbilical vein endothelial cells (HUVEC, Lonza, cat. CC-2519) and human mesenchymal stem cells (hMSC, Lonza, cat. PT-2501) were purchased from Lonza (Walkersville, MD).
PDMR cell lines were grown in complete medium (DC medium): Dulbecco's modified Eagle's medium (DMEM)/F12 supplemented with 5% fetal bovine serum (FBS), 2 mM L-glutamine, 100 U/mL penicillin and 100 µg/ml streptomycin, 0.4 µg/ml hydrocortisone, 10 ng/ml epidermal growth factor (EGF) recombinant human protein, 24 µg/mL adenine, and 0.1 mg/mL primocin. During culture from frozen stock vials, PDMR cells were cultured in the same medium containing 10 µM Y-27632 (see Table 3). The PDCs were cultured in complete DMEM/F12 media without 10 microM Y-27632 dihydrochloride for at least two passages prior to the screen. The pooled donor HUVEC and hMSC were cultured in endothelial cell growth medium 2 (PromoCell, Heidelberg, Germany, cat. C-22011) and mesenchymal stem cell growth medium 2 (PromoCell, cat. C-28009), respectively. For all experiments, HUVEC and hMSC were used at passages </=5.
For the pre-screen, cell seeding densities were determined from a titration spanning the range from 5,000 to 313 cells per well. The mct-spheroids including 60% malignant cells, 25% HUVEC and 15% MSC dispensed as a mixture into U-bottom Ultra-Low Attachment 384-well plates (Corning, NY)
High-throughput Drug Combination Screening.
Prior to their inoculation into 384-well plates, malignant cells, HUVEC, and hMSC were removed from T flasks using TrypLE express (Thermo Fisher Scientific, cat. 12605036) and harvested by centrifugation for 5 min at 233 x g. […]
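Further: spheroids exposed to compounds for 7 days before the endpoint.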

COC1CC2CCC(C)C(O)(O2)C(=O)C(=O)N2CCCCC2C(=O)OC(C(C)CC2CCC(OCCO)C(OC)C2)CC(=O)C(C)C=C(C)C(O)C(OC)C(=O)C(C)CC(C)C=CC=CC=C1C (stereo not given) + CC(C)NCC(C(=O)N1CCN(c2ncnc3c2C(C)CC3O)CC1)c1ccc(Cl)cc1
IC50 (second compound 0.3 µM): 29 nM
IC50 (second compound 0.949 µM): 2.9 nM
IC50 (second compound 3 µM): 0.525 nM
IC50 (second compound 9.49 µM): < 0.316 nM
IC50 (second compound 30 µM): < 0.316 nM
viability, T/C (second compound 0.3 µM, first compound 0.000316 µM): 80%
viability, T/C (second compound 0.3 µM, first compound 0.001 µM): 79.9%
viability, T/C (second compound 0.3 µM, first compound 0.00316 µM): 65.6%
viability, T/C (second compound 0.3 µM, first compound 0.01 µM): 55.7%
viability, T/C (second compound 0.3 µM, first compound 0.0316 µM): 51.8%
viability, T/C (second compound 0.3 µM, first compound 0.1 µM): 45.9%
viability, T/C (second compound 0.949 µM, first compound 0.000316 µM): 80.8%
viability, T/C (second compound 0.949 µM, first compound 0.001 µM): 65.2%
viability, T/C (second compound 0.949 µM, first compound 0.00316 µM): 48.4%
viability, T/C (second compound 0.949 µM, first compound 0.01 µM): 45.1%
viability, T/C (second compound 0.949 µM, first compound 0.0316 µM): 46.5%
viability, T/C (second compound 0.949 µM, first compound 0.1 µM): 40.7%
viability, T/C (second compound 3 µM, first compound 0.000316 µM): 51.8%
viability, T/C (second compound 3 µM, first compound 0.001 µM): 49.1%
viability, T/C (second compound 3 µM, first compound 0.00316 µM): 37.5%
viability, T/C (second compound 3 µM, first compound 0.01 µM): 32.5%
viability, T/C (second compound 3 µM, first compound 0.0316 µM): 28.6%
viability, T/C (second compound 3 µM, first compound 0.1 µM): 29.4%
viability, T/C (second compound 9.49 µM, first compound 0.000316 µM): 31.6%
viability, T/C (second compound 9.49 µM, first compound 0.001 µM): 28%
viability, T/C (second compound 9.49 µM, first compound 0.00316 µM): 21.2%
viability, T/C (second compound 9.49 µM, first compound 0.01 µM): 18.8%
viability, T/C (second compound 9.49 µM, first compound 0.0316 µM): 19.5%
viability, T/C (second compound 9.49 µM, first compound 0.1 µM): 17.4%
viability, T/C (second compound 30 µM, first compound 0.000316 µM): 15.9%
viability, T/C (second compound 30 µM, first compound 0.001 µM): 13.5%
viability, T/C (second compound 30 µM, first compound 0.00316 µM): 12.1%
viability, T/C (second compound 30 µM, first compound 0.01 µM): 8.24%
viability, T/C (second compound 30 µM, first compound 0.0316 µM): 9.33%
viability, T/C (second compound 30 µM, first compound 0.1 µM): 8.33%
